Measurements reported in the kinase profiling compilation of Christmann-Franck et al. (2016).

molecular target: KDR (human) (UniProt P35968); assay: HTRF
Sequence (P35968 whole entry, looked up): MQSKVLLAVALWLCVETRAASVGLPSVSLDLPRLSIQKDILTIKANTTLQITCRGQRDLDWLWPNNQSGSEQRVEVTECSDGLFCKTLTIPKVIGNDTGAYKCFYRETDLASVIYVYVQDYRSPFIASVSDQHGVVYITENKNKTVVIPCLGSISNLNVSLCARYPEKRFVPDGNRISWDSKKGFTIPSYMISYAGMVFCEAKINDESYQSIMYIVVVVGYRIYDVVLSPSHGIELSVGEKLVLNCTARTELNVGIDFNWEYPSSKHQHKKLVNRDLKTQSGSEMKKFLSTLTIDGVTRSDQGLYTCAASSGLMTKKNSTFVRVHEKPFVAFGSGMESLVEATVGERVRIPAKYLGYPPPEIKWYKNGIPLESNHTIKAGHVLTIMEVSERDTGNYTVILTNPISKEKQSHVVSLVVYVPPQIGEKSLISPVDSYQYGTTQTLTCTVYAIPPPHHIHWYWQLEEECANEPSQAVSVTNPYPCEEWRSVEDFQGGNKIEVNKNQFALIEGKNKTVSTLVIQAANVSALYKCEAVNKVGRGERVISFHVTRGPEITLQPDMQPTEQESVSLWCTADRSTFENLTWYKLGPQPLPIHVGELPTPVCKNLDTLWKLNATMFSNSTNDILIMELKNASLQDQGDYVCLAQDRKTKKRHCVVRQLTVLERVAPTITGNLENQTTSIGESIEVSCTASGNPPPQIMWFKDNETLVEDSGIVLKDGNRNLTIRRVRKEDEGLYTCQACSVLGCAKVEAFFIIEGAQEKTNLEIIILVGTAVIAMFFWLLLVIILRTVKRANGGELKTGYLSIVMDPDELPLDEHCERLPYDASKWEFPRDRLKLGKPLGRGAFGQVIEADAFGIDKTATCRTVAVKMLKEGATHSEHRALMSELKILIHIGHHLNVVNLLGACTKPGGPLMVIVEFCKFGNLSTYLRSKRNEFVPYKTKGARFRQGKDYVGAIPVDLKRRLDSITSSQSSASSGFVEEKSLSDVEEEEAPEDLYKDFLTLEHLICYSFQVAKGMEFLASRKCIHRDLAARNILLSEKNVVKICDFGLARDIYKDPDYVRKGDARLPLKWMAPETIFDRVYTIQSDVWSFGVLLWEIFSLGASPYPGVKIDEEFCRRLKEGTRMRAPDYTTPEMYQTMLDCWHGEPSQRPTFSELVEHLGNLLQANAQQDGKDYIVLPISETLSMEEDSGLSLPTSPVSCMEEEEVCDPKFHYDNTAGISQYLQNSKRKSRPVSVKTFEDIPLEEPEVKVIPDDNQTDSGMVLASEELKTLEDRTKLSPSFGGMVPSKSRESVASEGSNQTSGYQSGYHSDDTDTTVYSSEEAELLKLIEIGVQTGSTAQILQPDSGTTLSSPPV

Row | Structure (SMILES) | Ki [µM]
1 | CCn1c(=O)/c(=C\Nc2ccccc2)s/c1=C(/C#N)C(=O)O | 3.98

molecular target: PLK3 (human) (UniProt Q9H4B4); assay: Flashplate
Sequence (Q9H4B4 whole entry, looked up): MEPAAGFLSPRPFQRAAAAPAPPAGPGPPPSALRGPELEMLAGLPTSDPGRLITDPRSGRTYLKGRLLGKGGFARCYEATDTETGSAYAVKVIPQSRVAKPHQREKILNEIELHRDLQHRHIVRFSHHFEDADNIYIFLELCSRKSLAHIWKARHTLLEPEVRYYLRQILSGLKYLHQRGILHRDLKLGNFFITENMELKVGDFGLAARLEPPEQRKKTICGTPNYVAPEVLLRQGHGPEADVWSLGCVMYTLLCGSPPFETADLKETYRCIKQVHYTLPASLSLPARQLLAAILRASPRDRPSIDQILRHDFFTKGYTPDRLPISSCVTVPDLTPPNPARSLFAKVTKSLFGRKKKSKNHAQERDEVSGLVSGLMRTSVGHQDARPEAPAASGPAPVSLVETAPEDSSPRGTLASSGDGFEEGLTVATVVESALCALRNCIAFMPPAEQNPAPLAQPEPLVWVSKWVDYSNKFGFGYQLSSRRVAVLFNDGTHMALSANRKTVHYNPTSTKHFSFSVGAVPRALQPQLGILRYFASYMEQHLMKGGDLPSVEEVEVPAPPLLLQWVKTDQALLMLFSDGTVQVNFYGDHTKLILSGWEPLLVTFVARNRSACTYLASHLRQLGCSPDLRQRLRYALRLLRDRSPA

Row | Structure (SMILES) | Ki [µM]
2 | COc1cc2ncn(-c3cc(OCc4ccccc4C(F)(F)F)c(C(N)=O)s3)c2cc1OC | 0.00794

molecular target: CDK19 (human) (UniProt Q9BWU1); assay: Flashplate
Sequence (Q9BWU1 whole entry, looked up): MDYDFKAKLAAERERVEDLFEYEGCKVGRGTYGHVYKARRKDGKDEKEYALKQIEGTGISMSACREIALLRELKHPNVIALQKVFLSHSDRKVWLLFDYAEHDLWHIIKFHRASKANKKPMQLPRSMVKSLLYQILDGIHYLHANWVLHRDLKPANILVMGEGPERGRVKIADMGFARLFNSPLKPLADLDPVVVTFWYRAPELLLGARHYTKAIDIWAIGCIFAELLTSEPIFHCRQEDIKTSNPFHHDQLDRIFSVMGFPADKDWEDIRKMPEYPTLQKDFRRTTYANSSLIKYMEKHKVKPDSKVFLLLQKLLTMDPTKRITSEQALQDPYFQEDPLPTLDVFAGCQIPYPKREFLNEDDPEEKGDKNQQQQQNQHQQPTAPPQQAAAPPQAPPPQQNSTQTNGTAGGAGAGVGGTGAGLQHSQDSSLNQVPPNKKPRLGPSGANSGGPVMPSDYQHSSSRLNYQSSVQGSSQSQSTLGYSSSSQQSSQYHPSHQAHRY

Row | Structure (SMILES) | Ki [µM]
3 | Oc1cc(Cc2nc3ccccc3[nH]2)nn1-c1ccccc1 | > 100
4 | O=[N+]([O-])c1ccc(-n2nc(-c3ccncc3)cc2O)cc1 | > 100

molecular target: CLK4 (human) (UniProt Q9HAZ1); assay: Flashplate
Sequence (Q9HAZ1 whole entry, looked up): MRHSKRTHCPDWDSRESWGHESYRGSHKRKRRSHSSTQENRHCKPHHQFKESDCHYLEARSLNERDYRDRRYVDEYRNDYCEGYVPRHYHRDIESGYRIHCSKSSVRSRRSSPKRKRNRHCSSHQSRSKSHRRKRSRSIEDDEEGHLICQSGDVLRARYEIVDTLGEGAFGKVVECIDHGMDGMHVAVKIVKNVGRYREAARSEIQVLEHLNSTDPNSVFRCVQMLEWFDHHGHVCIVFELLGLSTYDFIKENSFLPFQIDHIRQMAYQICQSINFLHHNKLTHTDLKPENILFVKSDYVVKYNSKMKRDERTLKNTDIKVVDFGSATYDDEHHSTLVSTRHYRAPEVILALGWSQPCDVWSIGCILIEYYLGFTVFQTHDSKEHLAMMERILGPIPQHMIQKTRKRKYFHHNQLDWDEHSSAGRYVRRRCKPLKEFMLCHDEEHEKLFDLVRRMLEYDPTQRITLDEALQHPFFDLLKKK

Row | Structure (SMILES) | Ki [µM]
5 | Oc1cc(Cc2nc3ccccc3[nH]2)nn1-c1ccccc1 | 1.26

molecular target: CDK5 (human) (UniProt Q00535); assay: Flashplate
Sequence (Q00535 whole entry, looked up): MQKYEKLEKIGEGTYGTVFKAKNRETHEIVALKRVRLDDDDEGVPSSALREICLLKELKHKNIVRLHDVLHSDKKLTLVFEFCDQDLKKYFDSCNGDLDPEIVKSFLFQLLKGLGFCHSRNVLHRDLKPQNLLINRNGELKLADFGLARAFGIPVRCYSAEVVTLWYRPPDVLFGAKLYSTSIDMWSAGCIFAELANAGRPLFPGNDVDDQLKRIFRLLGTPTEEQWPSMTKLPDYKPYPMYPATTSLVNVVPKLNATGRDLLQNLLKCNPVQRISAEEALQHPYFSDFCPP

Row | Structure (SMILES) | Ki [µM]
6 | O=C(O)c1ccccc1Nc1ncnc(Nc2ccc3cn[nH]c3c2)n1 | 0.251

molecular target: SGK1 (human) (UniProt O00141); assay: Flashplate
Sequence (O00141 whole entry, looked up): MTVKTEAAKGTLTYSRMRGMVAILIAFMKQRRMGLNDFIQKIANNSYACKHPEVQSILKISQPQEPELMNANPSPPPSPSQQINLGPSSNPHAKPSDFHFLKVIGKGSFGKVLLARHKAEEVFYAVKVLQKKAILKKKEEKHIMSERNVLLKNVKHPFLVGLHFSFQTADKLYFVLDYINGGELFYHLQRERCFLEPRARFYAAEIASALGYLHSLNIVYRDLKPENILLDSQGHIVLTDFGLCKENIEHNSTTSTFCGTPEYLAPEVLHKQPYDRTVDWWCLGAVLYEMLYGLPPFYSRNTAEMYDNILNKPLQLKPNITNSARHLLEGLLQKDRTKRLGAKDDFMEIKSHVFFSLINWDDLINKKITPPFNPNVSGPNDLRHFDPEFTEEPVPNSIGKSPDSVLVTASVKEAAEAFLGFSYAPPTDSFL

Row | Structure (SMILES) | Ki [µM]
7 | CCn1c(=O)/c(=C\Nc2ccccc2)s/c1=C(/C#N)C(=O)O | 3.98
8 | COc1cc2ncn(-c3cc(OCc4ccccc4C(F)(F)F)c(C(N)=O)s3)c2cc1OC | > 10
9 | Cc1cccc(NC(=O)Nc2ccc(-c3csc4c(C#CCN)cnc(N)c34)cc2)c1 | 3.98
10 | Cc1cc(Nc2ncc(F)c(N[C@H]3[C@@H](C(N)=O)[C@@H]4C=C[C@H]3C4)n2)ccc1N1CCN(C)CC1 | 1.58
11 | COc1cc(/C=C(\C#N)c2nc3cc(C)ccc3[nH]2)c(Br)cc1O | 5.01
12 | S=c1[nH]nc2c3c4c(sc3n3c(=S)[nH]nc3n12)CCC4 | 1.58
13 | CC(C)(C)OC(=O)n1ncc2cc(Nc3c(NCc4ccc(S(N)(=O)=O)cc4)c(=O)c3=O)ccc21 | > 10
14 | CC(C)Cn1c(N)nc2c(F)cc(-c3c(-c4ccc(F)cc4)nc4sccn34)cc21 | > 10
15 | COc1cc(Nc2ncc3c(n2)-c2ccc(Cl)cc2C(c2c(F)cccc2OC)=NC3)ccc1C(=O)O | > 10
16 | CC1(C)CC(=O)C2=C(C1)Nc1cc(Cl)ccc1S2 | > 10
17 | CN1CC[C@H]1COc1cncc(CCc2ccncc2)c1 | > 10
18 | NC(=O)c1cc2c(-c3cc(C(F)(F)F)cc(C(F)(F)F)c3)cncc2s1 | > 10
19 | O=C(CO)N1CCC(c2[nH]nc(-c3ccc(Cl)cc3F)c2-c2ccncn2)CC1 | > 10
20 | O=C(O)c1cc2c(-c3cccc(F)c3)cncc2s1 | > 10
21 | CCCC(=O)Nc1nn(C(=O)CC)c2nc3ccccc3cc12 | > 10
22 | CS(=O)(=O)Nc1cc2c(cc1Cl)NC(=O)Nc1cnc(C#N)c(n1)OCCCCCO2 | > 10
23 | Cc1n[nH]c2sc(C(=O)NCCc3ccc(Cl)cc3)cc12 | 3.98
24 | Cc1ccccc1-c1c(C(=O)O)n(CCCOc2cccc3ccccc23)c2ccccc12 | > 10
25 | NC(=O)c1cccc2c1Nc1nnc(Cl)cc1C(=O)N2 | 7.94
26 | Cc1n[nH]c2ccc(-c3cncc(OC[C@@H](N)Cc4cccc(Cl)c4)c3)cc12 | 0.158
27 | Nc1n[nH]c2ccc(-c3nnn(Cc4ccccc4)c3-c3ccc(F)cc3)cc12 | 2.51
28 | Cc1cccc(Cl)c1-c1cccc2c(CCCOc3cccc4ccccc34)c(C(=O)NCCOCCOCCN)[nH]c12 | > 10
29 | CC[C@H](CO)Nc1nc(NCc2ccccc2)c2ncn(C(C)C)c2n1 | > 10
30 | CCN(CC)CC#Cc1cnc(N)c2c(-c3ccc(NC(=O)Nc4cccc(C)c4)cc3)csc12 | > 10

Row | Structure (SMILES) | Ki [µM]
31 | CC(C)=C(C)c1cccc2c(CCCOc3cccc(Cl)c3Cl)c(C(=O)O)[nH]c12 | > 10
32 | O=C(Nc1ccc2[nH]ncc2c1)c1ccc(Cl)cc1 | 7.94
33 | O=C1Nc2ccccc2Nc2nnc(I)cc21 | 3.98
34 | O=C(Nc1n[nH]c2nc3ccccc3cc12)c1ccncc1 | 1.58
35 | NC(=O)c1ccc(-c2c[nH]c3nccc(Cl)c23)cc1 | 0.251
36 | COc1cc(-c2ccc3c(c2)NC(=O)c2ccc(-c4ccccc4NS(C)(=O)=O)cc2N3)cc(OC)c1OC | > 7.94
37 | O=C1NCCc2[nH]c(-c3ccnc(-c4cnc5ccccc5c4)c3)cc21 | > 10
38 | O=c1[nH]c2sc3c(c2c2nc(-c4ccccc4)nn12)CCCC3 | > 10
39 | CCCS(=O)(=O)Nc1ccc(-c2ccc3[nH]nc(N)c3c2)cc1 | 0.316
40 | CC(C)c1nnc2ccc(-c3c(-c4ccc(F)cc4F)nc4occn34)nn12 | > 10
41 | CC(C)S(=O)(=O)n1c(N)nc2ccc(-c3c(-c4ccc(F)cc4)nc4sccn34)cc21 | > 10
42 | CNC(=O)c1cc(Oc2ccc(NC(=O)Nc3cccc(C(F)(F)F)c3)cc2)ccn1 | > 10
43 | O=C1Cc2c([nH]c3ccc(Br)cc23)-c2ncccc2N1 | > 10
44 | Cc1ccc(CNc2c(Nc3ccncc3)c(=O)c2=O)cc1 | 3.98
45 | O=C(Nc1cnccn1)Nc1ccnc2cc(C(F)(F)F)ccc12 | 1
46 | Nc1ccc(-c2csc3c(/C=C/c4nc5ccccc5[nH]4)cnc(N)c23)cc1 | 7.94
47 | Oc1ccc(Nc2ncnc3scc(Cl)c23)cc1 | > 10
48 | Cc1cccc(-c2[nH]c(-c3ccnc(N)n3)cc2C(N)=O)c1C | > 10
49 | NC(=O)c1cc2c(-c3ccc(Br)c(F)c3F)cncc2s1 | 0.398
50 | CC(C)(C)C(=O)Oc1ccc2c(c1)nc(NC(=O)c1cccc([N+](=O)[O-])c1)n2CCCO | > 10
51 | CCOc1nc(C(=O)NCc2ccncc2)cc(N)c1C#N | > 10
52 | Oc1ccc(Nc2[nH]nc(-c3ccc(O)cc3)c2-c2ccc(O)cc2)cc1 | 0.1
53 | O=c1nc(-c2ccc3[nH]ncc3c2)cc(-c2ccccc2)[nH]1 | 2
54 | Cn1cncc1C(OCc1c(-c2ccc(OC(F)(F)F)cc2)cc(C#N)c(=O)n1C)c1ccc(C#N)cc1 (centres undefined) | > 10

molecular target: DYRK1A (human) (UniProt Q13627); assay: Flashplate

Row | Structure (SMILES) | Ki [µM]
55 | O=C(O)c1ccccc1Nc1ncnc(Nc2ccc3cn[nH]c3c2)n1 | 0.251

molecular target: MARK3 (human) (UniProt P27448); assay: Flashplate
Sequence (P27448 whole entry, looked up): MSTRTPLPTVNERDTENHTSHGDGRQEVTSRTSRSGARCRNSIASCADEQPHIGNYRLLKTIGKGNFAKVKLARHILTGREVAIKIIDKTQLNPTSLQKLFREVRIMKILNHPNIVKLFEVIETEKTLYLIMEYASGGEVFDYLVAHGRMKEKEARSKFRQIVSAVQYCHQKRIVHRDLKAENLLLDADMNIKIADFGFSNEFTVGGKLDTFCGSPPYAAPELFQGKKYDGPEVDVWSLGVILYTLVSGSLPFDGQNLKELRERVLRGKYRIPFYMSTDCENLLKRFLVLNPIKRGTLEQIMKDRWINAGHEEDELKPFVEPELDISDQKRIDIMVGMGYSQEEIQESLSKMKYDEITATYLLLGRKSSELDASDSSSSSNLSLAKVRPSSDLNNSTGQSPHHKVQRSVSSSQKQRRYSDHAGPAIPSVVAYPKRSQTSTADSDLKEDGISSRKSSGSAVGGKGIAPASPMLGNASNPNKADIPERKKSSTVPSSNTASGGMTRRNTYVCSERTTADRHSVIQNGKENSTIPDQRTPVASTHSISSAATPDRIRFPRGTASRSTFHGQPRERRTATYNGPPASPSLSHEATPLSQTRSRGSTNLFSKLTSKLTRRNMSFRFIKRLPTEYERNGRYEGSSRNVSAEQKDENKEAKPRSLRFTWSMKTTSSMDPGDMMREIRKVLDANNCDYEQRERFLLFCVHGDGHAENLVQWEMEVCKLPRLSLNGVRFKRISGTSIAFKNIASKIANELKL

Row | Structure (SMILES) | Ki [µM]
56 | CCn1c(=O)/c(=C\Nc2ccccc2)s/c1=C(/C#N)C(=O)O | 3.98

molecular target: CDC7 (human) (UniProt O00311); assay: Flashplate
Sequence (O00311 whole entry, looked up): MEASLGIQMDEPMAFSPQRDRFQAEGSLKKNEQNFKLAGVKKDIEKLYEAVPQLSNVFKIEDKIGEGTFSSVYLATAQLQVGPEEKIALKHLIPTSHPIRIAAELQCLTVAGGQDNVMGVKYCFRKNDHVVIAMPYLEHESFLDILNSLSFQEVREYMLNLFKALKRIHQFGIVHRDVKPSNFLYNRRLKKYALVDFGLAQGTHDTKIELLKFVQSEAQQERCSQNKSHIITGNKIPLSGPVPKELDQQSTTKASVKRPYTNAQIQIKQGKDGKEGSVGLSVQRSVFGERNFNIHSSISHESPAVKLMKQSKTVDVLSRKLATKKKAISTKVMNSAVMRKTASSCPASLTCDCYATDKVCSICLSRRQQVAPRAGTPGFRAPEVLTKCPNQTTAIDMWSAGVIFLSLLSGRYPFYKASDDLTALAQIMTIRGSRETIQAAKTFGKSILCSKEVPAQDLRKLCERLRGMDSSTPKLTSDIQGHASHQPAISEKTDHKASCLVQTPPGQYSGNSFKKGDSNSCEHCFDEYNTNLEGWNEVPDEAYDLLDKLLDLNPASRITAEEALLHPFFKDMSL

Row | Structure (SMILES) | Ki [µM]
57 | O=[N+]([O-])c1ccc(-n2nc(-c3ccncc3)cc2O)cc1 | 0.501
58 | CN(C)c1ccc(-c2c(-c3ccc4[nH]nc(N)c4c3)nnn2Cc2ccccc2)cc1 | 0.000398

molecular target: CHEK2 (human) (UniProt O96017); assay: Flashplate

Row | Structure (SMILES) | Ki [µM]
59 | CCn1c(=O)/c(=C\Nc2ccccc2)s/c1=C(/C#N)C(=O)O | 3.98
